According to US11090304B2 (Amgen Inc., priority 2018, dated 2021):
pIC50: −log10 of the molar value. Read-outs that look alike come from different tables or passages of the source.

What was measured:
[1] = molecular target: GDP-bound KRAS protein (aa 1-169), containing both G12C and C118A amino acid substitutions (Homo sapiens, UniProt P01116, C118A/G12C); assay: Coupled nucleotide exchange assay (SOS-mediated, AlphaScreen); assay type: biochemical; conditions: 5 min compound pre-incubation
[2] = tested on: Phosphorylation of ERK1/2 in MIA PaCa-2 cells; assay: Phospho-ERK1/2 MSD assay in MIA PaCa-2 cells; assay type: cell-based; conditions: read-out: p-ERK IC50 (2 h; MIA PaCa-2), 2 h compound treatment
How it was run: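 MSD electrochemiluminescence readout of phospho-ERK1/2 in whole-cell lysates, IC50 by 4-parameter logistic fit. Compound titrations were applied for 2 or 4 h at 37 °C, 5% CO2, followed by 10 ng/mL EGF stimulation for 10 min before lysis.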

Chain of GDP-bound KRAS protein (aa 1-169), containing both G12C and C118A amino acid substitutions (P01116 1-169 isoform P01116-2 G12C/C118A): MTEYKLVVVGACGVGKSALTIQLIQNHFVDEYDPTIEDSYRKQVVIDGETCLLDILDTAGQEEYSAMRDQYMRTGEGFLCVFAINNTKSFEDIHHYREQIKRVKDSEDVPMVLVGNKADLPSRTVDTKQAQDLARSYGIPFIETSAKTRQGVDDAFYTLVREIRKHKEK

Structure (SMILES)	Coupled exchange IC50 (5 min) [1]	pIC50 ([2]; Homo sapiens, MIA PaCa-2, 2 h)	pIC50 ([1]; read-out: Coupled exchange IC50 (5 min))	pIC50 [2]
C=CC(=O)N1CCN(c2nc(=O)n(-c3ccccc3C(C)C)c3nc(-c4nc(N)cc5ccccc45)c(Cl)cc23)[C@@H](C)C1 [Example 70-2, 7-(3-amino-1-isoquinolinyl)-6-chloro-4-((2S)-2-methyl-4-(2-propenoyl)-1-piperazinyl)-1-(2-(2-propanyl)phenyl)pyrido[2,3-d]pyrimidin-2(1H)-one]	0.184 | nda μM	6.67		
C=CC(=O)N1CCN(c2nc(=O)n(-c3c(C)cccc3C(C)C)c3nc(-c4nc(N)ccc4Cl)c(Cl)cc23)[C@@H](C)C1 [Example 70-3, 7-(6-amino-3-chloro-2-pyridinyl)-6-chloro-1-(2-methyl-6-(2-propanyl)phenyl)-4-((2S)-2-methyl-4-(2-propenoyl)-1-piperazinyl)pyrido[2,3-d]pyrimidin-2(1H)-one]	0.125 | nda μM	6.69		
C=CC(=O)N1CCN(c2nc(=O)n(-c3c(C)cccc3C(C)C)c3nc(-c4nc(N)ccc4F)c(Cl)cc23)[C@@H](C)C1 [Example 70-4, 7-(6-amino-3-fluoro-2-pyridinyl)-6-chloro-1-(2-methyl-6-(2-propanyl)phenyl)-4-((2S)-2-methyl-4-(2-propenoyl)-1-piperazinyl)pyrido[2,3-d]pyrimidin-2(1H)-one]	0.398 | nda μM	6.55		
C=CC(=O)N1CCN(c2nc(=O)n(-c3ccccc3C(C)C)c3nc(-c4ccccc4F)c(C)cc23)[C@@H](C)C1 [Example 74-1, 7-(2-Fluorophenyl)-6-methyl-4-((2S)-2-methyl-4-(2-propenoyl)-1-piperazinyl)-1-(2-(2-propanyl)phenyl)pyrido[2,3-d]pyrimidin-2(1H)-one]	0.951 | nda μM	6.21		
C=CC(=O)N1CCN(c2nc(=O)n(-c3c(C)ccnc3C(C)C)c3nc(-c4ccccc4F)c(C)cc23)[C@@H](C)C1 [Example 74-2, 7-(2-fluorophenyl)-6-methyl-1-(4-methyl-2-(2-propanyl)-3-pyridinyl)-4-((2S)-2-methyl-4-(2-propenoyl)-1-piperazinyl)pyrido[2,3-d]pyrimidin-2(1H)-one]	0.228 | nda μM	6.52		
C=CC(=O)N1CCN(c2nc(=O)n(-c3c(C)ccnc3C(C)C)c3nc(-c4c(O)cccc4F)c(C)cc23)[C@@H](C)C1 [Example 74-3, 7-(2-fluoro-6-hydroxyphenyl)-6-methyl-1-(4-methyl-2-(2-propanyl)-3-pyridinyl)-4-((2S)-2-methyl-4-(2-propenoyl)-1-piperazinyl)pyrido[2,3-d]pyrimidin-2(1H)-one]	0.136 | nda μM	6.46		
C=CC(=O)N1CCN(c2nc(=O)n(-c3c(C)cc(CN(C)C)cc3C(C)C)c3nc(-c4ccccc4F)c(Cl)cc23)[C@@H](C)C1 [Example 80-1, 6-Chloro-1-(4-((dimethylamino)methyl)-2-methyl-6-(2-propanyl)phenyl)-7-(2-fluorophenyl)-4-((2S)-2-methyl-4-(2-propenoyl)-1-piperazinyl)pyrido[2,3-d]pyrimidin-2(1H)-one]	0.08 | nda μM	7.28		
C=CC(=O)N1CCN(c2nc(CN(C)C)c(-c3ccccc3C(C)C)c3nc(-c4ccccc4F)c(Cl)cc23)[C@@H](C)C1 [Example 86-1, 1-((3S)-4-(3-Chloro-7-((dimethylamino)methyl)-2-(2-fluorophenyl)-8-(2-isopropylphenyl)-1,6-naphthyridin-5-yl)-3-methylpiperazin-1-yl)prop-2-en-1-one]	3.95 | nda μM	5.37		
C=CC(=O)N1C[C@H](C)N(c2nc(=O)n(-c3c(C(C)C)ncnc3C(C)C)c3nc(-c4ccccc4F)c(Cl)cc23)[C@@H](C)C1 [Example 87-1, 6-Chloro-4-((2S,6S)-2,6-dimethyl-4-(2-propenoyl)-1-piperazinyl)-1-(4,6-di(2-propanyl)-5-pyrimidinyl)-7-(2-fluorophenyl)pyrido[2,3-d]pyrimidin-2(1H)-one]	0.034 | nda μM	7.96		
C=CC(=O)N1C[C@@H](C)N(c2nc(=O)n(-c3c(C(C)C)ncnc3C(C)C)c3nc(-c4ccccc4F)c(Cl)cc23)[C@@H](C)C1 [Example 87-2, 6-chloro-4-((2R,6S)-2,6-dimethyl-4-(2-propenoyl)-1-piperazinyl)-1-(4,6-di(2-propanyl)-5-pyrimidinyl)-7-(2-fluorophenyl)pyrido[2,3-d]pyrimidin-2(1H)-one]	0.035 | nda μM	7.48		
C=CC(=O)N1CCN(c2nc(=O)n(-c3c(C(C)C)ncnc3C(C)C)c3nc(-c4ccc(C#N)cc4F)c(Cl)cc23)[C@@H](C)C1 [Example 87-4, 4-(6-chloro-1-(4,6-di(2-propanyl)-5-pyrimidinyl)-4-((2S)-2-methyl-4-(2-propenoyl)-1-piperazinyl)-2-oxo-1,2-dihydropyrido[2,3-d]pyrimidin-7-yl)-3-fluorobenzonitrile]	0.254 | nda μM	6.58		
C=CC(=O)N1CCN(c2nc(=O)n(-c3c(C(C)C)ncnc3C(C)C)c3nc(-c4ccc(F)cc4N)c(Cl)cc23)[C@@H](C)C1 [Example 87-5, 7-(2-amino-4-fluoropheny-1)-6-chloro-1-(4,6-di(2-propanyl)-5-pyrimidinyl)-4-((2S)-2-methyl-4-(2-propenoyl)-1-piperazinyl)pyrido[2,3-d]pyrimidin-2(1H)-one]	0.251 | nda μM	6.74		
C=CC(=O)N1CCN(c2nc(=O)n(-c3ccccc3C(C)C)c3nc(-c4c(F)cccc4C#N)c(Cl)cc23)[C@@H](C)C1 [Example 98, 2-(6-Chloro-4-((2S)-2-methyl-4-(2-propenoyl)-1-piperazinyl)-2-oxo-1-(2-(2-propanyl)phenyl)-1,2-dihydropyrido[2,3-d]pyrimidin-7-yl)-3-fluorobenzonitrile]	0.27 | nda μM	6.68		
C=CC(=O)N1CCN(c2nc(=O)n(-c3ncncc3C(C)C)c3nc(-c4ccccc4F)c(Cl)cc23)[C@@H](C)C1 [Example 99, 6-Chloro-7-(2-fluorophenyl)-4-((2S)-2-methyl-4-(2-propenoyl)-1-piperazinyl)-1-(5-(2-propanyl)-4-pyrimidinyl)pyrido[2,3-d]pyrimidin-(1H)-one]			6.63	7.14
C=CC(=O)N1CCN(c2nc(=O)n(-c3cccnc3CC(C)C)c3nc(-c4ccccc4F)c(Cl)cc23)[C@@H](C)C1 [Example 101, 6-Chloro-7-(2-fluorophenyl)-4-((2S)-2-methyl-4-(2-propenoyl)-1-piperazinyl)-1-(2-(2-methylpropyl)-3-pyridinyl)pyrido[2,3-d]pyrimidin-2(1H)-one]	0.147 | nda μM	6.83		
C=CC(=O)N1CCN(c2nc(=O)n(-c3c(C)cccc3C(C)C)c3nc(-c4ccccc4F)c(C)cc23)[C@@H](C)C1 [Example 102, 7-(2-Fluorophenyl)-6-methyl-1-(2-methyl-6-(2-propanyl)phenyl)-4-((2S)-2-methyl-4-(2-propenoyl)-1-piperazinyl)pyrido[2,3-d]pyrimidin-2(1H)-one]	0.421 | nda μM	6.18		
C=CC(=O)N1CCN(c2nc(=O)n(-c3c(CC)cccc3CC)c3cc(-c4ccccc4F)c(Cl)cc23)[C@@H](C)C1 [Example 103, 6-Chloro-1-(2,6-diethylphenyl)-7-(2-fluorophenyl)-4-((2S)-2-methyl-4-(2-propenoyl)-1-piperazinyl)-2(1H)-quinazolinone]	0.099 | nda μM	6.75		
C=CC(=O)N1CCN(c2nc(=O)n(-c3ncccc3C(C)C)c3cc(-c4ccccc4F)c(Cl)cc23)[C@@H](C)C1 [Example 104, 6-Chloro-7-(2-fluorophenyl)-4-((2S)-2-methyl-4-(2-propenoyl)-1-piperazinyl)-1-(3-(2-propanyl)-2-pyridinyl)-2(1H)-quinazolinone]	0.062 | nda μM	7.11		
C=CC(=O)N1CCN(c2nc(=O)n(-c3scnc3C(C)C)c3cc(-c4ccccc4F)c(Cl)cc23)[C@@H](C)C1 [Example 105, 6-Chloro-7-(2-fluorophenyl)-4-((2S)-2-methyl-4-(2-propenoyl)-1-piperazinyl)-1-(4-(2-propanyl)-1,3-thiazol-5-yl)-2(1H)-quinazolinone]	0.051 | nda μM	7.19		
C=CC(=O)N1CCN(c2nc(=O)n(-c3c(C)cccc3C(C)C)c3cc(-c4c(O)cccc4F)c(Cl)cc23)[C@@H](C)C1 [Example 106, 6-Chloro-7-(2-fluoro-6-hydroxyphenyl)-1-(2-methyl-6-(2-propanyl)phenyl)-4-((2S)-2-methyl-4-(2-propenoyl)-1-piperazinyl)-2(1H)-quinazolinone]	0.074 | nda μM	6.98		
C=CC(=O)N1CCN(c2nc(=O)n(-c3ccccc3C(C)C)c3cc(-c4ccccc4F)c(Cl)nc23)[C@@H](C)C1 [Example 110, 6-Chloro-7-(2-fluorophenyl)-4-((2S)-2-methyl-4-(2-propenoyl)-1-piperazinyl)-1-(2-(2-propanyl)phenyl)pyrido[3,2-d]pyrimidin-2(1H)-one]	0.166 | nda μM	6.37		
C=CC(=O)N1CCN(c2nc(=O)n(-c3c(C)ccnc3C(C)C)c3nc(-c4ccccc4F)c(Cl)nc23)[C@@H](C)C1 [Example 111, 6-Chloro-7-(2-fluorophenyl)-1-(4-methyl-2-(2-propanyl)-3-pyridinyl)-4-((2S)-2-methyl-4-(2-propenoyl)-1-piperazinyl)-2(1H)-pteridinone]	0.174 | nda μM	6.71		
